Experimental data as given in patent publication US20100222396A1 (Novartis AG, priority 2009, published 2010).

Assays:
[1] = biological target: T1, human orexin 2 receptor (hOx2R) (Homo sapiens, UniProt O43614); test: Calcium accumulation in cells (FLIPR), antagonism of orexin A, hOx2R; format: cell-based; conditions: for Kd: cells expressing human orexin 2 receptor, IC50 vs orexin A converted by Cheng and Prusoff correction; for inhibition at 10 µM: measured at a concentration of 10 μM of compound (cells marked ^a)
T1 construct: expressed in transfected cells
T1 sequence (O43614 1-444): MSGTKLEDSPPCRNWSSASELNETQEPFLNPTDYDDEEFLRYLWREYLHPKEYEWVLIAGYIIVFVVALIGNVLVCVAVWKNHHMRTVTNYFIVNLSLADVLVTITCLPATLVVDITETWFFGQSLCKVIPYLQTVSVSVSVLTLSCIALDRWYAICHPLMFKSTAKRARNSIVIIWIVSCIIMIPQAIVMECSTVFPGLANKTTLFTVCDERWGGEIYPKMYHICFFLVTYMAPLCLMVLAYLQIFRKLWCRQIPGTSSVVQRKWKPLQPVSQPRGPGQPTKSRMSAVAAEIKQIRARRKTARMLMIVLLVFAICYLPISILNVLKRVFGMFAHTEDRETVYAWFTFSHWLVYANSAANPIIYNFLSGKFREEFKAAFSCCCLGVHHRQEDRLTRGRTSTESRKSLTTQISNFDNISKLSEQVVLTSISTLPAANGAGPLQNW
Experimental: (§1) Cells expressing human orexin 1 or human orexin 2 receptors, were seeded at 8,000 cells/well in 384 well black-walled clear bottom, poly-D-lysine coated plates. After 24 h, the medium was removed and cells were washed once with phosphate buffered saline and serum-deprived overnight in assay buffer (130 mM NaCl, 5.4 mM KCl, 1.8 mM CaCl2, 0.8 mM MgSO4, 0.9 mM NaH2PO4, 25 mM glucose, 20 mM HEPES, pH 7.4) containing bovine serum albumin (1% w/v).
(§2) On the day of the experiment, the cells seeded in black plates were treated with assay buffer containing the Ca^2+ sensitive fluorescent dye Fluo-4-AM (2 μM), and probenecid (0.1 mM). After 1 h plates were washed twice with, and resuspended in, assay buffer containing probenecid (0.1 mM) using a multi plate washer. The plates were placed into a FLIPR II (Fluorometric Imaging Plate Reader, Molecular Devices, Sunnyvale, Calif., USA) and baseline fluorescence (fluorescence light units, FLU) was measured (5 measurements, 2 S each; laser excitation 488 nm at 0.6-1 W, CCD camera exposure 0.4 s) before addition of buffer alone (basal) or containing test compounds (either compound of formula I alone, agonist alone or agonist in the presence of various concentrations of compounds of formula I). Fluorescence measurements were then continued every 1 S for 120 S followed by every 4 S for 240 S.
(§3) The measurements were typically made in two sequences:
(§4) Compounds of formula I were tested usually in a concentration range from 10^−9 M to 10^−5 M.
(§5) In the second round, performed one hour later (to allow for equilibration), Orexin A was tested either in the absence (calibration curves, Orexin A agonist controls) or in the presence of compounds of formula I to determine antagonism.

[2] = biological target: T2, human orexin 1 receptor (hOx1R) (Homo sapiens, UniProt O43613); test: Calcium accumulation in cells (FLIPR), antagonism of orexin A, hOx1R; format: cell-based; conditions: for inhibition at 10 µM: measured at a concentration of 10 μM of compound (cells marked ^a); for Kd: cells expressing human orexin 1 receptor, IC50 vs orexin A converted by Cheng and Prusoff correction
T2 construct: expressed in transfected cells
T2 sequence (O43613 1-425): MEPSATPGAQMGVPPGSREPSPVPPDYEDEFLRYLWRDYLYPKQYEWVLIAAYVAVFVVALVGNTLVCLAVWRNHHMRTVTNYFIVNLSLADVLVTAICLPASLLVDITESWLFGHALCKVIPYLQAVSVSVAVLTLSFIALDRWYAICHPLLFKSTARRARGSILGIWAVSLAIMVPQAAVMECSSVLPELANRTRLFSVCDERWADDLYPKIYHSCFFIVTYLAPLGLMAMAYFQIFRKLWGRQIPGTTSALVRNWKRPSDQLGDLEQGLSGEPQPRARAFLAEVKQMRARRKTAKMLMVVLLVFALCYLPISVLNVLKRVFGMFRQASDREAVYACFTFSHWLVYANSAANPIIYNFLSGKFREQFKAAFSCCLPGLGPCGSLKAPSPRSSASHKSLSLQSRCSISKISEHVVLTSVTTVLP
Experimental: as §1, §2, §3, §4, §5

CN(C(=O)c1ccccc1)[C@H](CCNC(=O)c1cccnc1)Cc1ccccc1 [Example 86, N—[(S)-3-(Benzoyl-methyl-amino)-4-phenyl-butyl]-nicotinamide]
Kd [1]: 1500 nM | inhibition at 10 µM [2]: 4%

CN(C(=O)c1ccccc1)[C@H](CCNC(=O)c1cccn1C)Cc1ccccc1 [Example 91, 1-Methyl-1H-pyrrole-2-carboxylic acid [(S)-3-(benzoyl-methyl-amino)-4-phenyl-butyl]-amide]
Kd [1]: 375 nM | inhibition at 10 µM [2]: 16%

CN(C(=O)c1ccccc1)[C@H](CCNC(=O)c1ccccn1)[C@@H](F)c1ccccc1 [Example 116, Pyridine-2-carboxylic acid [(3R,4S)-3-(benzoyl-methyl-amino)-4-fluoro-4-phenyl-butyl]-amide]
inhibition at 10 µM [1]: 29% | Kd [2]: 1550 nM

CN(C(=O)c1ccccc1)[C@H](CCNC(=O)c1ccc2c(c1)CCO2)Cc1ccccc1 [Example 94, 2,3-Dihydro-benzofuran-5-carboxylic acid [(S)-3-(benzoyl-methyl-amino)-4-phenyl-butyl]-amide]
Kd [1]: 565 nM | inhibition at 10 µM [2]: 12%

CN(C(=O)c1ccccc1)[C@H](CCNC(=O)c1nccn1C)Cc1ccccc1 [Example 92, 1-Methyl-1H-imidazole-2-carboxylic acid [(S)-3-(benzoyl-methyl-amino)-4-phenyl-butyl]-amide]
Kd [1]: 921 nM | inhibition at 10 µM [2]: 2%

CN(C(=O)c1ccccc1)[C@](C)(CCNC(=O)c1ccccn1)Cc1ccccc1 [Example 111, Pyridine-2-carboxylic acid [(S)-3-(benzoyl-methyl-amino)-3-methyl-4-phenyl-butyl]-amide]
Kd [1]: 562 nM | inhibition at 10 µM [2]: 25%

CN(C(=O)c1ccccc1)[C@H](CCNC(=O)c1cc2ccccc2cn1)Cc1ccccc1 [Example 89, Isoquinoline-3-carboxylic acid [(S)-3-(benzoyl-methyl-amino)-4-phenyl-butyl]-amide]
Kd [1]: 2550 nM | Kd [2]: 5450 nM

CN(C(=O)c1ccccc1)[C@H](CCNC(=O)c1ccc2cccnc2c1)Cc1ccccc1 [Example 88, Quinoline-7-carboxylic acid [(S)-3-(benzoyl-methyl-amino)-4-phenyl-butyl]-amide]
Kd [1]: 3090 nM | inhibition at 10 µM [2]: 19%

CN(C(=O)c1ccc2c(c1)OCO2)[C@H](CCNC(=O)c1nc2ccccc2o1)Cc1ccccc1 [Example 108, Benzooxazole-2-carboxylic acid {(S)-3-[(benzo[1,3]dioxole-5-carbonyl)-methyl-amino]-4-phenyl-butyl}-amide]
Kd [1]: 542 nM | Kd [2]: 3990 nM

CN(C(=O)c1ccccc1)[C@H](CCNC(=O)c1ccccn1)[C@@H](O)c1ccccc1 [Example 115, Pyridine-2-carboxylic acid [(3R,4S)-3-(benzoyl-methyl-amino)-4-hydroxy-4-phenyl-butyl]-amide]
inhibition at 10 µM [1]: 33% | inhibition at 10 µM [2]: 13%

CN(C(=O)c1ccccc1)[C@H](CCNC(=O)c1ccc2ccccc2n1)Cc1ccccc1 [Example 87, Quinoline-2-carboxylic acid [(S)-3-(benzoyl-methyl-amino)-4-phenyl-butyl]-amide]
Kd [1]: 1290 nM | Kd [2]: 4420 nM

CC(=O)NCC[C@H](Cc1ccccc1)N(C)C(=O)c1ccc2c(c1)OCO2 [Example 109, Benzo[1,3]-dioxole-5-carboxylic acid ((S)-3-acetylamino-1-benzyl-propyl)-methyl-amide]
Kd [1]: 1720 nM | inhibition at 10 µM [2]: 39%

CN(C(=O)c1ccccc1)[C@H](CCNC(=O)c1ccccc1)Cc1ccccc1 [Example 15, N—[(S)-3-(Benzoyl-methyl-amino)-4-phenyl-butyl]-benzamide]
Kd [1]: 272 nM | inhibition at 10 µM [2]: 17%

CN(C(=O)c1ccccc1)[C@@H](Cc1ccccc1)[C@H](O)CNC(=O)c1ccccn1 [Example 69, Pyridine-2-carboxylic acid [(2R,3S)-3-(benzoyl-methyl-amino)-2-hydroxy-4-phenyl-butyl]-amide]
Kd [1]: 1660 nM | Kd [2]: 3520 nM

CN(C(=O)c1ccc2c(c1)OCO2)[C@@H](Cc1ccccc1)[C@H](O)CNC(=O)c1ccc2c(c1)OCO2 [Example 72, Benzo[1,3]dioxole-5-carboxylic acid {(2R,3S)-3-[(benzo[1,3]dioxole-5-carbonyl)-methyl-amino]-2-hydroxy-4-phenyl-butyl}-amide]
Kd [1]: 761 nM | inhibition at 10 µM [2]: 27%

Cc1cccc(C)c1C(=O)N(C)[C@H](CCNC(=O)c1ccccn1)Cc1ccccc1 [Example 98, Pyridine-2-carboxylic acid {(8)-3-[(2,6-dimethyl-benzoyl)-methyl-amino]-4-phenyl-butyl}-amide]
inhibition at 10 µM [1]: 24% | inhibition at 10 µM [2]: 28%

CN(C(=O)c1ccccc1)[C@H](CCNC(=O)c1ccccn1)C(C)(C)c1ccccc1 [Example 114, Pyridine-2-carboxylic acid [(R)-3-(benzoyl-methyl-amino)-4-methyl-4-phenyl-pentyl]-amide]
inhibition at 10 µM [1]: 18% | inhibition at 10 µM [2]: 34%

COc1ccc(C(=O)N(C)[C@H](CCNC(=O)c2nc3ccccc3n2C)Cc2ccccc2)cc1 [Example 90, 1-Methyl-1H-benzoimidazole-2-carboxylic acid {(S)-3-[(4-methoxy-benzoyl)-methyl-amino]-4-phenyl-butyl}-amide]
Kd [1]: 2540 nM | Kd [2]: 1250 nM

COc1ccc(C(=O)N(C)[C@H](CCNC(=O)c2cccn2C)Cc2ccccc2)cc1OC [Example 120, 1-Methyl-1H-pyrrole-2-carboxylic acid {(8)-3-[(3,4-dimethoxy-benzoyl)-methyl-amino]-4-phenyl-butyl}-amide]
Kd [1]: 4 nM | Kd [2]: 182 nM

CN(C(=O)c1ccccc1Br)[C@H](CCNC(=O)c1ccccn1)Cc1ccccc1 [Example 100, Pyridine-2-carboxylic acid {(8)-3-[(2-bromo-benzoyl)-methyl-amino]-4-phenyl-butyl}-amide]
Kd [1]: 131 nM | Kd [2]: 1080 nM

CN(C(=O)c1ccc2ccn(C)c2c1)[C@H](CCNC(=O)c1ccccn1)Cc1ccccc1 [Example 85, 1-Methyl-1H-indole-6-carboxylic acid {(S)-1-benzyl-3-[(pyridine-2-carbonyl)-amino]-propyl}-methyl-amide]
Kd [1]: 394 nM | Kd [2]: 237 nM

CN(C(=O)c1ccc2c(c1)OC(C)(C)O2)[C@H](CCNC(=O)c1ccccn1)Cc1ccccc1 [Example 101, Pyridine-2-carboxylic acid {(S)-3-[(2,2-dimethyl-benzo[1,3]dioxole-5-carbonyl)-methyl-amino]-4-phenyl-butyl}-amide]
Kd [1]: 1680 nM | inhibition at 10 µM [2]: 13%
